# Data: ChEMBL document CHEMBL1201862, “PubChem BioAssay data set” (2004)
# Calls of active or inactive are those of the source.
# How the values were obtained:
# [1] = target: Broad substrate specificity ATP-binding cassette transporter ABCG2 (Homo sapiens, UniProt Q9UNQ0); experiment: ABCG2 efflux pump inhibitors, dose response, Ig-MXP3 cells, flow cytometry (AID 1690); assay type: functional
# [2] = target: ATP-dependent translocase ABCB1 (Homo sapiens, UniProt P08183); experiment: ABCB1 efflux pump inhibitor potency, dose response, Jurkat-DNR cells, JC-1, flow cytometry (AID 1689); assay type: functional
# Interleukin-8 [3] = target: T1, Interleukin-8 (Homo sapiens, UniProt P10145); experiment: Dose Response confirmation of uHTS small molecule hits for cystic fibrosis induced NFkb Inhibitors in a PAF-induced IL8 counterscreen.; assay type: functional; details: read-out: IC50_Mean
# T1 sequence (P10145 whole entry): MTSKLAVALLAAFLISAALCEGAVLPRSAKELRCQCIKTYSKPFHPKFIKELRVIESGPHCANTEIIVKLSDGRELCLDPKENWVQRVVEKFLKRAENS
# Interleukin-8 [4] = target: T1, Interleukin-8; experiment: Dose Response confirmation of uHTS small molecule hits for cystic fibrosis induced NFkb Inhibitors in a TNFa-induced IL8 counterscreen.; assay type: functional; details: read-out: IC50_Mean
# [5] = target: T2, Corticotropin-releasing factor receptor 2/Corticotropin-releasing factor-binding protein (Homo sapiens, UniProt P24387+Q13324); experiment: Dose Response confirmation of uHTS hits for small molecule antagonists of the CRF-binding protein and CRF-R2 receptor complex.; assay type: functional; details: read-out: IC50_Mean
# T2 sequence (Q13324 whole entry): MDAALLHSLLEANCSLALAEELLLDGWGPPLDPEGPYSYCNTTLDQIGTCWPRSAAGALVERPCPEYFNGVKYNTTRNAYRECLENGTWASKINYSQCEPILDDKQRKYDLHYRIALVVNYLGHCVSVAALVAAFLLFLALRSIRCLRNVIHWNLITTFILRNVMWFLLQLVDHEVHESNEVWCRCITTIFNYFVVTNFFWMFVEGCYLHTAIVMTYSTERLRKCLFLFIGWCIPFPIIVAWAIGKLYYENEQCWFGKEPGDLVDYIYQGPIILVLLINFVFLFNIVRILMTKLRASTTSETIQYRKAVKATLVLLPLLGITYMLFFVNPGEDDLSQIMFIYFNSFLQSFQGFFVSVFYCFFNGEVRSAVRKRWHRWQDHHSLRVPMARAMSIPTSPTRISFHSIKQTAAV
# T2 sequence (P24387 whole entry): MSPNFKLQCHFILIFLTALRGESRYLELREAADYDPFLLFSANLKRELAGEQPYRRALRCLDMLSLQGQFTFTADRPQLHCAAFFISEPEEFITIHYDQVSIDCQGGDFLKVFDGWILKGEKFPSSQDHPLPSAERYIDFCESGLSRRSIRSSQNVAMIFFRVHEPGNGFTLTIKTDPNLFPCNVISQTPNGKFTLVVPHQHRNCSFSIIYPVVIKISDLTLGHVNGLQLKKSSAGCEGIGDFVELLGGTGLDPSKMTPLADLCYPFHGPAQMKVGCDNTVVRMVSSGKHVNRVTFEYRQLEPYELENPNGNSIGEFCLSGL
# [6] = target: T2, Corticotropin-releasing factor receptor 2/Corticotropin-releasing factor-binding protein; experiment: activators of CRF receptor 2 with binding protein – uHTS hits, confirmation (AID 602473); assay type: functional; details: read-out: EC50_Mean
# [7] = CRF-BP/CRF-R2 complex antagonists, dose response, cell-based, uHTS hits, 384-well (AID 651639); assay type: functional, Homo sapiens; details: read-out: IC50_Mean
# [8] = cytotoxicity toward NIH3T3 fibroblasts, dose response, counter-screen, cell-based, ATP luminescence, mouse fibroblasts (AID 2010); assay type: functional;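 further: cells exposed to compound for about 90 hours before reading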
# [9] = target: T3, High affinity choline transporter 1 (Homo sapiens, UniProt Q9GZV3); experiment: CHT inhibitors, dose response, cell-based, 5-point CRC, membrane potential dye (AID 504840); assay type: functional
# T3 sequence (Q9GZV3 whole entry): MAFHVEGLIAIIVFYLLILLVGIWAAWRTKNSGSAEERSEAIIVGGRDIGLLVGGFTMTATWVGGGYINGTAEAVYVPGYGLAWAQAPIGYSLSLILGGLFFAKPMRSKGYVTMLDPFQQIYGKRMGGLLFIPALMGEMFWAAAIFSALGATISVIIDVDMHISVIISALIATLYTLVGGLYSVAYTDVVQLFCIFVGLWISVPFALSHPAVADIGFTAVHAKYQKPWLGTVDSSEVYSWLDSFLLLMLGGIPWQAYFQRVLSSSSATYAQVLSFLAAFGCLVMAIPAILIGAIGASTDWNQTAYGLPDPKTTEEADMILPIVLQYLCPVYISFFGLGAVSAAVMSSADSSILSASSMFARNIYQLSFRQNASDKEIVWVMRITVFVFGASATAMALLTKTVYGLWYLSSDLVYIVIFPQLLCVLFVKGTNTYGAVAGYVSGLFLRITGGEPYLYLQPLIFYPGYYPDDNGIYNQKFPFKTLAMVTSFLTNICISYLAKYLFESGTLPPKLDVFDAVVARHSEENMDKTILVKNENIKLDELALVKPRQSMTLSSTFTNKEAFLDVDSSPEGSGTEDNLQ
# [10] = Luminescence Cell-Based Dose Retest to Confirm Inhibitors of Cancer Stem Cells. [Related pubchem assays (depositor defined):AID2717, AID2721]; assay type: functional; details: Homo sapiens
# [11] = target: T4, Rac GTPase-activating protein 1 (Homo sapiens, UniProt Q9H0H5); experiment: MgcRacGAP GTPase-activating activity inhibitors, confirmation, biochemical, ADP Hunter fluorescence, primary and confirmatory (AID 624330); assay type: functional
# T4 sequence (Q9H0H5 whole entry): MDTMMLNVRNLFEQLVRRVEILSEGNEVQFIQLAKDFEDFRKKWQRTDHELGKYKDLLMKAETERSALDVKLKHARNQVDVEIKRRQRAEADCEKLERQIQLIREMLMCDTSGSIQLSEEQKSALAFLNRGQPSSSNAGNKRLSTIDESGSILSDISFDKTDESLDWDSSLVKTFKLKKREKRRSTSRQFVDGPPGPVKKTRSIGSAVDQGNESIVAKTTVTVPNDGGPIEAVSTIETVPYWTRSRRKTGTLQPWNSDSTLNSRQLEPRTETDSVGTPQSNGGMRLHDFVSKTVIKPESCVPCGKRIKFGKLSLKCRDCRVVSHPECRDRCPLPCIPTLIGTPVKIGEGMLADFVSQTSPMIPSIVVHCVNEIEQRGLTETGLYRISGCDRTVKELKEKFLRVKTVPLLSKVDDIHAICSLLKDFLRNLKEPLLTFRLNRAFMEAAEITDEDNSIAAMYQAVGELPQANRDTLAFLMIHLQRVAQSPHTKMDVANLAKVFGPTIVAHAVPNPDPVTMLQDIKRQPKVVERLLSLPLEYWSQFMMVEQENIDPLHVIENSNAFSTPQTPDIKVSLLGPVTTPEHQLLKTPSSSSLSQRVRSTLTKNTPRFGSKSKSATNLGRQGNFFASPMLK
# [12] = inhibitors of intracellular T. cruzi replication, confirmation, NIH3T3 host cells, beta-gal luminescence (AID 2044); assay type: functional, cell-based;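 further: intracellular parasites grown in NIH/3T3 mouse fibroblasts as host cells; luminescent beta-galactosidase reporter signal from transgenic T. cruzi replicating inside host cells; inhibitors lower the luminescence signal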
# [13] = HeLa cell cytotoxicity, dose response, cytotoxicity control for MgcRacGAP inhibitor project (AID 624300); assay type: functional
# [14] = target: Mitochondrial peptide methionine sulfoxide reductase (Bos taurus, UniProt P54149); assay type: functional;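 further: absorbance read-out, biochemical high-throughput dose-response screen for MsrA inhibitors, confirmatory; recombinant bovine MsrA coupled to E. coli TrxB with NADPH and selenocystamine; potency is for inhibitors of MsrA activity on DMSO substrate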
# [15] = target: T5, Heat shock factor protein 1 (Mus musculus, UniProt P38532); experiment: inhibition of MG132-induced HSE-luciferase signal, confirmation, cell-based, NIH3T3, luminescence, dose retest (AID 2382); assay type: functional;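 further: NIH3T3 fibroblasts with HSF1-driven luciferase reporter stressed by proteasome inhibitor MG132; luminescence from HSF1-driven luciferase expression after 8 hours of MG132 stress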
# T5 sequence (P38532 whole entry): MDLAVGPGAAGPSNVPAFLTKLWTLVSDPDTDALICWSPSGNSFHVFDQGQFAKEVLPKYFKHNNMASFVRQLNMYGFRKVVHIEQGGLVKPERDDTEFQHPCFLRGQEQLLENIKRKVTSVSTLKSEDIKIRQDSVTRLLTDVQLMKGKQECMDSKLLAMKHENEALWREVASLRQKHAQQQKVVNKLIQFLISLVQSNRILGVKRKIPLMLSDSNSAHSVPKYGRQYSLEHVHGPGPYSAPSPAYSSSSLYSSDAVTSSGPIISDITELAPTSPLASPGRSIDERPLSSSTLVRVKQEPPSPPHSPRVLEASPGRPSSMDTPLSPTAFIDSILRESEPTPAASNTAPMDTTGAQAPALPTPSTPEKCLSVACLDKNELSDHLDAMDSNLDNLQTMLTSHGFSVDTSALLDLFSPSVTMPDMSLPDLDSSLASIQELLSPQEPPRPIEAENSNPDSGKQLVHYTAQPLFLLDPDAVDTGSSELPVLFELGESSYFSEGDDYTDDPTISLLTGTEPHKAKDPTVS
# [16] = target: Ras and Rab interactor 1/Tyrosine-protein kinase ABL1 (Homo sapiens, UniProt P00519+Q13671); assay type: functional;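 further: biochemical TR-FRET dose-response test measuring inhibition of binding between Rin1 and Abl proteins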
# [17] = target: Adenosylmethionine-8-amino-7-oxononanoate aminotransferase (Mycobacterium tuberculosis, UniProt P9WQ81); experiment: Mycobacterium tuberculosis BioA enzyme inhibitor Measured in Biochemical System Using Plate Reader - 2163-02_Inhibitor_Dose_CherryPick_Activity.; assay type: functional, Mycobacterium tuberculosis UT205
# [18] = target: T6, Calpain-2 catalytic subunit (Sus scrofa, UniProt P43367); experiment: pig calpain II inhibitor potency, dose response, biochemical, fluorogenic peptide substrate (AID 1420); assay type: functional
# T6 sequence (P43367 whole entry): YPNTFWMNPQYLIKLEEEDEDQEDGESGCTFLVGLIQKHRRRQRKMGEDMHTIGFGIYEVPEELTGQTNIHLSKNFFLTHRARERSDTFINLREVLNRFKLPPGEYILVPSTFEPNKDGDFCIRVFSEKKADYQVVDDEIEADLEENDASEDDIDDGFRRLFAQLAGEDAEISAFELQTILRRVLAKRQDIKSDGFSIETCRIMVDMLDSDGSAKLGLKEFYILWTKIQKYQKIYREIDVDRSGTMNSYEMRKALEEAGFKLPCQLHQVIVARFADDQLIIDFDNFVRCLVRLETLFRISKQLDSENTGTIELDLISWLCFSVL
# [19] = target: T5, Heat shock factor protein 1; experiment: HSF1 potentiators in luciferase reporter cells, confirmation, cell-based, NIH3T3, luminescence, dose retest (AID 435004); assay type: functional;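 further: stress induced by proteasome inhibitor MG132 added 30 min after compound; luciferase reporter driven by HSF1 response element in NIH3T3 cells; actives raise luminescence as potentiators of the MG132 stress response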
# [20] = target: Dual specificity protein phosphatase 3 (Homo sapiens, UniProt P51452); experiment: VHR phosphatase inhibition, dose response, selectivity assay for STEP inhibitor project, biochemical (AID 602374); assay type: functional; details: read-out: IC50_Mean
# [21] = target: Tyrosine-protein phosphatase non-receptor type 5 (Homo sapiens, UniProt P54829); experiment: STEP phosphatase inhibitors, confirmation, biochemical, fluorescence intensity, uHTS hits (AID 602372); assay type: functional; details: read-out: IC50_Mean
# [22] = target: Tyrosine-protein phosphatase non-receptor type 11 (Homo sapiens, UniProt Q06124); experiment: SHP2 phosphatase inhibition, dose response, selectivity assay for STEP inhibitor project, biochemical (AID 602367); assay type: functional; details: read-out: IC50_Mean
# Chain of Tyrosine-protein phosphatase non-receptor type 11 (Q06124 whole entry): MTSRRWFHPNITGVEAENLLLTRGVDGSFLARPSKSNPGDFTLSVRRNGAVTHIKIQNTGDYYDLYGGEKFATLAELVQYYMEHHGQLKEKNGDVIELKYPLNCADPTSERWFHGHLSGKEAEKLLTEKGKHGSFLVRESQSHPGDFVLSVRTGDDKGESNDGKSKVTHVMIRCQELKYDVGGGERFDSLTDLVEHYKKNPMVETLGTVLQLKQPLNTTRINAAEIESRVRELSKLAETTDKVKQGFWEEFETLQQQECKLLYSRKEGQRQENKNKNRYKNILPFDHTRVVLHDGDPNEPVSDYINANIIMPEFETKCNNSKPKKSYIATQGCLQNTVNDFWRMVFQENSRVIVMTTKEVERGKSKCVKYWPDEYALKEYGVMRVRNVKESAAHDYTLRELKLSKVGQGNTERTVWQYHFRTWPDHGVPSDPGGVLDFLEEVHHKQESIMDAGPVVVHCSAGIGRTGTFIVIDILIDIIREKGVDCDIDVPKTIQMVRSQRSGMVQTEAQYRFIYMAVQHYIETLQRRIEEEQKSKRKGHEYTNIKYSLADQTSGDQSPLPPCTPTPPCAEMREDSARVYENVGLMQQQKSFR
# Chain of Mitochondrial peptide methionine sulfoxide reductase (P54149 whole entry): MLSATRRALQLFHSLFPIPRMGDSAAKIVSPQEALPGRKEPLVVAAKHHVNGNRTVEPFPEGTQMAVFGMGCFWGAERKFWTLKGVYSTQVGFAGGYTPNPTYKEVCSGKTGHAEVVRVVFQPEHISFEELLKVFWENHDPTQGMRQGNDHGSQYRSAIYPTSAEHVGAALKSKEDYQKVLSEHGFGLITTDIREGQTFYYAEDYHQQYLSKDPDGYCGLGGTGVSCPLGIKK
# Chain of Ras and Rab interactor 1/Tyrosine-protein kinase ABL1 (P00519 whole entry): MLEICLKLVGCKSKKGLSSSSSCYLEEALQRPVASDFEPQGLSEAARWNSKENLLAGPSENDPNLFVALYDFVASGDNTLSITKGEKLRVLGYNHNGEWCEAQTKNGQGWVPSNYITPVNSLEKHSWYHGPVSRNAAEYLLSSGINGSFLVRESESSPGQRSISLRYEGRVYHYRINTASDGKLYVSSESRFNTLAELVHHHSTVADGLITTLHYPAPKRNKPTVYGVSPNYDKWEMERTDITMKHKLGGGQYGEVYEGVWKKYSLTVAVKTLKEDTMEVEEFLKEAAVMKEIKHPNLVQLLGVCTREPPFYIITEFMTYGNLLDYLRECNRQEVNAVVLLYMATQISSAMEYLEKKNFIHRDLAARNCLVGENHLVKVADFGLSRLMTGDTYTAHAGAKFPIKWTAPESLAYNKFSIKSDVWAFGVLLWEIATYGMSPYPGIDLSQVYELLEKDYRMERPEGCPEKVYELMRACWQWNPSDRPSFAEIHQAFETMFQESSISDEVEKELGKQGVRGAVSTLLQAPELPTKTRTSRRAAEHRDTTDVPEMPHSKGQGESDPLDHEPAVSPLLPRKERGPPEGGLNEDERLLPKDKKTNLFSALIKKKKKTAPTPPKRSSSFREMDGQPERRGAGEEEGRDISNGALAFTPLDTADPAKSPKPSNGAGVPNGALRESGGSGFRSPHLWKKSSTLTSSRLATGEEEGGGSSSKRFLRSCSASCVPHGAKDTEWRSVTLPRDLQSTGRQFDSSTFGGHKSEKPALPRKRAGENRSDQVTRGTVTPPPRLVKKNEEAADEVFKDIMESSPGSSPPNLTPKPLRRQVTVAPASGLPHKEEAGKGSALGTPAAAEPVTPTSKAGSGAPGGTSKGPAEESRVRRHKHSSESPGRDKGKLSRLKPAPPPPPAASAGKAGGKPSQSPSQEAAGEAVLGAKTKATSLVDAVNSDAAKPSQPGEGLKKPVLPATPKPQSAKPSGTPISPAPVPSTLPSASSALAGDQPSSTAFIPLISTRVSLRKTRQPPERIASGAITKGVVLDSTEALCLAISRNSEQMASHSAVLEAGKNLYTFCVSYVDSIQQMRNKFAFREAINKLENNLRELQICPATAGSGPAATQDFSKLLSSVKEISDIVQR
# Chain of Ras and Rab interactor 1/Tyrosine-protein kinase ABL1 (Q13671 whole entry): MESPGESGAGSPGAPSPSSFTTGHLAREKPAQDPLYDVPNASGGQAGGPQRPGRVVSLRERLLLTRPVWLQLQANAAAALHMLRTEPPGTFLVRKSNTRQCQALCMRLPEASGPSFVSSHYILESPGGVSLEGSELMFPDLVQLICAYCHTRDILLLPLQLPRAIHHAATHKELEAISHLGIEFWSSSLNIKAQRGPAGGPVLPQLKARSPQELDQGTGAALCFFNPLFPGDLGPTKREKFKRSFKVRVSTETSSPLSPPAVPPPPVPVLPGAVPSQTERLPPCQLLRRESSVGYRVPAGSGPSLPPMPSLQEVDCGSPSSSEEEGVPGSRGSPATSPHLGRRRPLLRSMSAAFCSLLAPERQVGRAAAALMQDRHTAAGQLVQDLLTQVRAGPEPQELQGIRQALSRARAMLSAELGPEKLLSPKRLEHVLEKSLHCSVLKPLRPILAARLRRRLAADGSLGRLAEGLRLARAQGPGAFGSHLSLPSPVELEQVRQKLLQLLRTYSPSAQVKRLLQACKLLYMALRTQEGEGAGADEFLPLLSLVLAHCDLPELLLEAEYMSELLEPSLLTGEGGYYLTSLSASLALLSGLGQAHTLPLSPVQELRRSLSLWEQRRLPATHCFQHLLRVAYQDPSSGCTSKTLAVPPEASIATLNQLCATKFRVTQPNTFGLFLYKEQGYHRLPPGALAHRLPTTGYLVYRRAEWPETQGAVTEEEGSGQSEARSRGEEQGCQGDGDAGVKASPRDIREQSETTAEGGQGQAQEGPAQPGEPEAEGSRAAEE
# Chain of Broad substrate specificity ATP-binding cassette transporter ABCG2 (Q9UNQ0 whole entry): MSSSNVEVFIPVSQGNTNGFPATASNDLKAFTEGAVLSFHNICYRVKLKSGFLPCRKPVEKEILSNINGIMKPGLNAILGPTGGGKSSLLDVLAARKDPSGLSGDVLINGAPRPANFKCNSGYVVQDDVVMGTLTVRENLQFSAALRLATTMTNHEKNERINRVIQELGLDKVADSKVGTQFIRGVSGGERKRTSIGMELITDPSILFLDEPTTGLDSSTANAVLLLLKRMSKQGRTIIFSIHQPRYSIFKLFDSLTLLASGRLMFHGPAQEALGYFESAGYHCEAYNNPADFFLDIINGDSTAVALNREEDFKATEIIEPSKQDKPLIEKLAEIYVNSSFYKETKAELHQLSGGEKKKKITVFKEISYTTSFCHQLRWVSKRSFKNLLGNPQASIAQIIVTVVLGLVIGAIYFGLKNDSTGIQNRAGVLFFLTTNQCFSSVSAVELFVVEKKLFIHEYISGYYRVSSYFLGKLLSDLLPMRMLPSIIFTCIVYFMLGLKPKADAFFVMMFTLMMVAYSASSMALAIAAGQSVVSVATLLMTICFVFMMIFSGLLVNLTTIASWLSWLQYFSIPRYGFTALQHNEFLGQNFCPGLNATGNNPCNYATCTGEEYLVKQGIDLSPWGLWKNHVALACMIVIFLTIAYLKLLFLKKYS
# Chain of ATP-dependent translocase ABCB1 (P08183 whole entry): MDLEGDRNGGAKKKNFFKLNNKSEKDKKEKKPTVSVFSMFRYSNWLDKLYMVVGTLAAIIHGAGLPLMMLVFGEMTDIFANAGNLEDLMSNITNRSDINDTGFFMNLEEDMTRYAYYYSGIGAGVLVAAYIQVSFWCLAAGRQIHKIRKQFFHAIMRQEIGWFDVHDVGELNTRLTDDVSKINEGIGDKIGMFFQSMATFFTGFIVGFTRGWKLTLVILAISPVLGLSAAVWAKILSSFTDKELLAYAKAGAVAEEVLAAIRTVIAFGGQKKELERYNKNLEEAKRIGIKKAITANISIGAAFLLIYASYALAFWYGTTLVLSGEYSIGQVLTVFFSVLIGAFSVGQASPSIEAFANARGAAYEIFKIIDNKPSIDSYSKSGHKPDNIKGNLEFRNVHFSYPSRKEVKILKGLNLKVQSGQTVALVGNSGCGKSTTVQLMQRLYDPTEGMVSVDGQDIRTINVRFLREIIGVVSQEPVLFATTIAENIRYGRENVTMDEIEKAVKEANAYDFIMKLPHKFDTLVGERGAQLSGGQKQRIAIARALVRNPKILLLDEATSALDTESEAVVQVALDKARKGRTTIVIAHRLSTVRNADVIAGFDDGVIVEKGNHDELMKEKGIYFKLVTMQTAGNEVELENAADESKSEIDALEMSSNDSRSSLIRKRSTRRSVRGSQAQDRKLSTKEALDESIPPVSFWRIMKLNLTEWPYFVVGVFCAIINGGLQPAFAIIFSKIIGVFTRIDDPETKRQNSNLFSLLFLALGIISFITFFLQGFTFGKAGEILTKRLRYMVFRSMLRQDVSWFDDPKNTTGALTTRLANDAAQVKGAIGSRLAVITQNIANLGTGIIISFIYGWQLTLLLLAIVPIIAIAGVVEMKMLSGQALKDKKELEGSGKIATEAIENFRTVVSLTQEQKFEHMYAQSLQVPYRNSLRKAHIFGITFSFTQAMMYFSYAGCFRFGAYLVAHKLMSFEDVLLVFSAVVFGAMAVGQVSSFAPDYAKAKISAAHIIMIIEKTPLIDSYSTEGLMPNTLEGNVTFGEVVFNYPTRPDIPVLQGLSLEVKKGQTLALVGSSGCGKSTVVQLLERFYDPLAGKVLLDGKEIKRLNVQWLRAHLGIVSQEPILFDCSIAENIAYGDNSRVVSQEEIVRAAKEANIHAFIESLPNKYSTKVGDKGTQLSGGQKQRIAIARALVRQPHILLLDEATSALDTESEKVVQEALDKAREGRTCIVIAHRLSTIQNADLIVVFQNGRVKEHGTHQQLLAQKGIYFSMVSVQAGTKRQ
# Chain of Dual specificity protein phosphatase 3 (P51452 whole entry): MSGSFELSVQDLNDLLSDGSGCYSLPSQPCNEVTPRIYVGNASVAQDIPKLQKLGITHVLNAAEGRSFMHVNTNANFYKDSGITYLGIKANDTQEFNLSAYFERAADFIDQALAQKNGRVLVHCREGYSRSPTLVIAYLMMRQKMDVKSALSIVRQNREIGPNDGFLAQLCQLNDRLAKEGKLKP
compound,measurement,setting,value
Cc1cc(C)n(-c2ccc(Cl)c(C(=O)Nc3cc(C(F)(F)F)ccc3Cl)n2)n1,EC50,[1],0.24 µM (inactive)
same,EC50,[2],5.21 µM (inactive)
CC(=O)c1cccc(NC(=O)Nc2cccnc2)c1,IC50,Interleukin-8 [3],45.7 µM (inactive)
same,IC50,Interleukin-8 [4],43.8 µM (inactive)
Cc1cc(C(=O)N2CCN(c3ccc([N+](=O)[O-])cc3)CC2)co1,IC50,[5],36.1 µM (active)
same,EC50,[6],> 53 µM (inactive)
same,IC50,[7],> 20 µM (inactive)
CCOCCCNC(=O)/C(C#N)=C/c1ccc([N+](=O)[O-])o1,EC50,[8],4.2 µM (active)
same,IC50,[9],4.79 µM (active)
same,AC50,[10],5.62 µM (active)
same,IC50,[11],149 µM (active)
same,EC50,[12],3.08 µM (active)
same,CC50,[13],96.6 µM (active)
Sc1nnc(C2CCCCC2)n1/N=C/c1ccccc1Cl,IC50,[14],155 µM (inactive)
Cc1ccc(CSCC(=O)Nc2cc(S(=O)(=O)N3CCOCC3)ccc2OC(C)C)cc1,IC50,[5],< 0.368 µM (active)
same,EC50,[6],> 53 µM (inactive)
same,IC50,[7],> 20 µM (inactive)
CCCn1c2ccccc2c2nnc(SCc3[nH]c(O)nc3C(=O)CCCCC(=O)OCC)nc21,EC50,[15],> 195 µM (not active)
same,IC50,[16],3.23 µM (active)
COc1cc2nc(S)nc(NCCc3ccc(S(N)(=O)=O)cc3)c2cc1OC,CC50,[13],100 µM (active)
COCCN1C(=O)c2ccc(C(=O)Nc3cccnc3)cc2C1=O,AC50,[17],4.26 µM (active)
CCN(/N=C/C=C/c1ccccc1)c1cc(=O)n(C)c(=O)[nH]1,IC50,[14],155 µM (inactive)
same,IC50,[18],13.1 µM (not active)
same,EC50,[19],> 260 µM (inactive)
Cc1ccc(-c2nc3ncccc3o2)cc1NC(=O)CC(C)C,IC50,[20],> 80 µM (inactive)
same,IC50,[21],> 80 µM (inactive)
same,IC50,[22],> 80 µM (inactive)
CCn1c(Oc2ccccc2F)nc2c1c(=O)n(C)c(=O)n2C,IC50,Interleukin-8 [3],21 µM (inactive)
same,IC50,Interleukin-8 [4],4.08 µM (active)
